In US20250269018A1, “COMBINED CANCER THERAPY WITH AN EPITHELIAL CELL ADHESION MOLECULE (EPCAM) INHIBITOR AND A HEPATOCYTE GROWTH FACTOR RECEPTOR (HGFR) INHIBITOR” (ACADEMIA SINICA, priority 2021, published 2025):

T1: EpEX-His (Homo sapiens, UniProt P16422)
T1 construct: the soluble extracellular domain of EpCAM (EpEX); His; made in house; host or cells: Expi293
T1 sequence (P16422 24-265 limits assumed): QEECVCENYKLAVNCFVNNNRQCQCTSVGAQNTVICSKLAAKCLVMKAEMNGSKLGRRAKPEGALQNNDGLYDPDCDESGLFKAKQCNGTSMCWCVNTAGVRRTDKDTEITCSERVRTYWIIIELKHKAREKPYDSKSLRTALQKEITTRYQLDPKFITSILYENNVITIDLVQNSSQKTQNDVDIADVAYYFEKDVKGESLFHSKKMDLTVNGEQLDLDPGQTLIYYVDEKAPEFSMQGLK

B1: F(ab′)2 of EpAb2-6: divalent antibody fragments F(ab′)2 of EpAb2-6 (antibody, V domains shown)
VH: VKLQESGPELKKPGETVKISCKASGYTFTDYSMHWVKQAPGKGLKWMGWINTETGEPTYADDFKGRFAFSLETSASTAYLQINNLKNEDTATYFCARTAVYWGQGTTVTVSS
VL: DIQMTQSPSSLSASLGERVSLTCRASQEISVSLSWLQQEPDGTIKRLIYATSTLDSGVPKRFSGSRSGSDYSLTISSLESEDFVDYYCLQYASYPWTFGGGTKLEIKRADAAPTVS

Legend:
[1] = test system: HT29 cells; assay: Transwell invasion assay with matrigel, HT29; type: cell-based, human; details: 10 μg/ml EpAb2-6 and 10 μM crizotinib, 24 h, vs control IgG, FIG. 7G
Experimental: Cell migration and invasion were assayed with 8-μm pore size Transwell migration chambers (Millicell) without or with 10% matrigel. Cells (1×10^5) were added to the upper chamber in 500 μl serum-free DMEM. Then, 700 μl DMEM containing 10% FBS was added to the lower chamber as a chemoattractant. Migration and invasion were allowed to proceed for 16 h at 37° C. in a standard cell culture incubator. Then, cells were removed from the upper surface of the membranes with cotton swabs, and the cells that had migrated to the lower surface were stained with 0.05% (w/v) crystal violet in 4% paraformaldehyde (in 1×PBS) for 15 min and washed with water. Membranes were dried for 15-20 min before at least four random fields on the membrane examined at high power were counted for each experimental condition.

[2] = test system: HCT116 or HT29; assay: Metastatic and orthotopic animal models of colon cancer, overall statements
Experimental: Colon cancer HCT116 or HT29 (5×10^6 cells/mouse) in PBS were injected into 4-6-week-old female NOD/SCID mice through the tail vein. Mice were then randomly assigned to different treatment groups by body weight. After 3 days, antibodies were administered through tail vein injection twice a week for four consecutive weeks. Crizotinib was administered daily by oral gavage for 5 days per week (treatment for four weeks). For the therapeutic study, tumor-bearing mice were treated with isotype control IgG1 (15 mg/kg), crizotinib (20 mg/kg), EpAb2-6 (15 mg/kg), or crizotinib (20 mg/kg) combined with EpAb2-6 (15 mg/kg). Mouse survival rate were measured.
Orthotopic tumor models were created as previously reported (Chen et al., 2020). Briefly, NSCID mice were used for orthotopic implantation of HCT116 cells previously infected with Lenti-luc virus (lentivirus containing luciferase gene). The mice were anesthetized by i.p. injection ofAvertin, 2,2,2-Tribromo-ethanol (Sigma-Aldrich) at a dose of 250 mg/kg. Tumor development was monitored by bioluminescence imaging. For the therapeutic study, tumor-bearing mice were treated with isotype control IgG1 (15 mg/kg), crizotinib (20 mg/kg), EpAb2-6 (15 mg/kg), or crizotinib (20 mg/kg) combined with EpAb2-6 (15 mg/kg). Tumor progression was monitored by quantification of bioluminescence. Mouse survival was also monitored.

[3] = test system: HCT116 cells; assay: Apoptosis assay, annexin V-FITC/PI double labeling, HCT116; type: cell-based, human
Experimental: (§1) FIGS. 7A to 7G. EpAb2-6 binds EpEX and induces apoptosis by F(ab′)2 and inhibits regulated intramembrane proteolysis (RIP) activation and HGFR signaling. (FIG. 7A) Binding affinity of IgG EpAb2-6 (mouse) and F(ab′)2 to EpEX-His (1 μg/ml) coated overnight was checked using ELISA (OD450). (FIG. 7B) HCT116 cells were treated with 100 μg/ml control IgG, Fc, or F(ab′)2 of EpAb2-6 for 24 h. The apoptotic and necrotic cells were quantified by fluorescein annexin V-FITC/PI double labeling. (FIG. 7C) HCT116 and HT29 cells were treated with 10 μg/ml control IgG, MT201, humanized EpAb2-6 (hEpAb2-6) or mouse hybridoma EbAb2-6 (mEpAb2-6) for 24 h. The apoptotic and necrotic cells were quantified by fluorescein annexin V-FITC/PI double labeling. (FIG. 7D) HCT116 cells were treated with 10 μg/ml control IgG, MT201, hEpAb2-6 or mEpAb2-6 for 16 h, followed by treatment with EpEX-His (50 nM) for 15 min. Levels of phosphorylated HGFR, AKT, and ERK, and (FIG. 7E) RIP proteins ADAM17 and presenilin 2 were examined by Western blotting. Anti-EpCAM antibody and crizotinib coordinately induces apoptosis in colon cancer cells. (FIG. 7F) HCT116 and HT29 cells were treated with 10 μg/ml NMIgG or EpAb2-6 and 4 μM HGFR inhibitor crizotinib for 24 h. The apoptotic and necrotic cells were quantified by fluorescein annexin V-FITC/PI double labeling. (FIG. 7G) HCT116 and HT29 cells were treated with 10 μg/ml NMIgG or EpAb2-6 and 10 μM HGFR inhibitor crizotinib. Cell invasion was assessed by a Transwell assay with matrigel after 24 h.
(§2) Cells were seeded and treated with 10 μg/ml mAb or inhibitor for 6 h; an unrelated mouse myeloma immunoglobulin used at appropriate dilution served as the IgG2a (Invitrogen #02-6200) isotype control. Apoptotic cells were detected using Annexin V-FITC and PI, and were analyzed using a flow cytometer (BD Immmunocytometry Systems). Early apoptosis was measured with the Annexin V-FITC Apoptosis Detection kit II (BD Pharmingen). Late apoptotic nuclei were detected with propidium iodide (PI) staining.

[4] = test system: HT29 cells; assay: Apoptosis assay, annexin V-FITC/PI double labeling, HT29; type: cell-based, human; details: 10 μg/ml EpAb2-6 and 4 μM crizotinib 24 h, FIG. 7F
Experimental: as §1, §2

[5] = test system: HCT116 cells; assay: Transwell migration/invasion and wound healing assay, HCT116; type: cell-based, human; details: HCT116; 10 μg/ml EpAb2-6 and 10 μM crizotinib; 24 h; vs control IgG; FIG. 7G
Experimental: FIGS. 3A to 3H. EpEX induces the activation of ERK and FAK-AKT signaling pathway. Wild type (WT) or EpCAM knockout (KO) HCT116 cells after EpEX-His treatment. (FIG. 3A) The levels of phosphorylated HGFR, AKT, FAK, GSK3β, ERK, ADAM17, and presenilin 2 were assayed by Western blotting. (FIG. 3B) Colony formation was examined by crystal violet staining. (FIG. 3C) HCT116 cells were treated with TAPI (ADAM17 inhibitor) or DAPT (γ-secretase inhibitor) for 24 hours, and the phosphorylation of HGFR, AKT, and ERK was analyzed by Western blotting, and EpEX protein level in culture medium was examined by immunoprecipitation and Western blotting. (FIG. 3D) HCT116 and HT29 cells were starved for 16 h, then treated with EpEX-His (50 nM) and HGF (0.5 nM) for 15 min. The levels of phosphorylated HGFR, AKT, and ERK were examined by Western blotting. (FIG. 3E) HCT116 cells were starved for 16 h, then treated with 50 nM EpEX-His for 15 min. HGFR inhibitor SU11274 (SU, 10 μM), AKT inhibitor LY294002 (LY, 25 μM), ERK inhibitor U0126 (U0, 20 μM), or FAK inhibitor PF-562271 (PF, 10 μM) were applied 1 h before EpEX treatment. Phosphorylation of AKT, ERK, and FAK was examined by Western blotting. (FIG. 3F) HCT116 cells were starved for 16 h, then treated with 50 nM EpEX, and SU (10 μM), LY (25 μM), U0 (20 μM) or PF (10 μM). Colony formation was examined by crystal violet staining after treatment for 7 days. The relative colony densities are shown. Migration ability was examined by the (FIG. 3G) wound healing assay at the indicated times. (FIG. 3H) The numbers of migration cell was assessed by a Transwell after treatment for 24 h.
FIGS. 4A to 4L. EpEX induces EMT and invasion by stabilizing β-catenin and Snail through decreasing GSK3β activity. (FIG. 4A) The protein expression of EMT markers and regulators was detected by Western blotting in Wild-type (WT) or EpCAM knockout (KO) HCT116 cells after EpEX treatment. (FIG. 4B) Cell invasion was examined by Transwell chamber assay with matrigel. (FIG. 4C) WT or KO HCT116 and HT29 cells were starved for 16 h, then treated with 0.5 nM of HGF with 2% FBS for 24 h. EMT-related protein expression (E-cadherin, vimentin, and Snail) was examined by Western blotting. (FIG. 4D) WT or KO HCT116 and HT29 cells were treated with HGF (0.5 nM) for 24 h. Invasion by HCT116 and HT29 cells was examined by Transwell chamber assay with matrigel. (FIG. 4E) HCT116 and HT29 cells were starved for 16 h, then treated with 0.5 nM of HGF with 2% FBS for 24 h. EMT-related protein expression (E-cadherin, Vimentin, and Snail) was examined by Western blotting. (FIG. 4F) HCT116 and HT29 cells were starved for 16 h, then treated with 0.5 nM of HGF with 2% FBS for 24 h. Cell invasion was assessed by a Transwell assay with matrigel. (FIG. 4G) HCT116 cells after shLuc and shHGFR treatment were treated with 50 nM of EpEX-His. HCT116 cells after shLuc and shHGFR treatment were treated with 50 nM of EpEX-His with 2% FBS for 24 h. EMT-related protein expression (E-cadherin, Vimentin, and Snail) was examined by Western blotting. (FIG. 4H) Cell invasion was examined by Transwell chamber assay with matrigel. (FIG. 4I) Starved HCT116 cells were treated SU (10 μM) for 1 h, followed by treatment with EpEX-His (50 nM) for 24 h. Phosphorylated GSK3β, active-β-catenin, and Snail were detected by Western blotting. (FIG. 4J) HCT116 cells were starved for 16 h, then treated with 50 nM EpEX-His for 24 min. AKT inhibitor LY294002 (25 μM), ERK inhibitor U0126 (20 μM), or PF-562271 (10 μM) were applied 1 h before EpEX treatment. Protein expression of phosphorylated GSK3β and Snail was examined by Western blotting. (FIG. 4K) HCT116 cells were starved for 16 h, then treated with 50 nM EpEX, and SU (10 μM), LY (25 μM), UO (20 μM) or PF (10 μM). Cell invasion was examined by Transwell chamber assay with matrigel. (FIG. 4L) Protein expression was analyzed by Western blotting in EpEX-His (50 nM) treated HCT116 cells after treatment with or without 2 μM GSK3β inhibitor (BIO) for 24 h. […]

[6] = molecular target: T1, EpEX-His; assay: ELISA binding to coated EpEX-His; details: EpEX-His 1 μg/ml coated; ELISA OD450; FIG. 7A
Experimental: as §1, with “(FIG. 7G) HCT116 and HT29 cells were treated with 10 μg/ml NMIgG or EpAb2-6 and 10 μM HGFR inhibitor crizotinib.” left out

| binding to EpEX [6] | Molecule | effect of crizotinib on the inhibitory effect of EpAb2-6 on invasion [1] | survival [2] | tumor progression [2] | effect of crizotinib on the apoptotic effects of EpAb2-6 ([3]; 10 μg/ml EpAb2-6 and 4 μM crizotinib 24 h, FIG. 7F) | sensitization of HCT116 cells to antibody-induced apoptosis after crizotinib treatment ([3]; discussion statement) | effect of crizotinib on the apoptotic effects of EpAb2-6 [4] | effect of crizotinib on the inhibitory effect of EpAb2-6 on invasion [5] | apoptosis ([3]; 100 μg/ml 24 h, FIG. 7B) |
| --- | --- | --- | --- | --- | --- | --- | --- | --- | --- |
| – | C[C@@H](Oc1cc(-c2cnn(C3CCNCC3)c2)cnc1N)c1c(Cl)ccc(F)c1Cl [crizotinib, 3-[(1R)-1-(2,6-dichloro-3-fluorophenyl)ethoxy]-5-(1-piperidin-4-ylpyrazol-4-yl)pyridin-2-amine] | enhanced the inhibitory effect of EpAb2-6 on invasion | poor survival | developed significant tumors | enhance the apoptotic effects of EpAb2-6 | sensitized to humanized-EpAb2-6- and EpAb2-6-induced apoptosis | enhance the apoptotic effects of EpAb2-6 | enhanced the inhibitory effect of EpAb2-6 on invasion | – |
| bind to EpEX | B1 | – | – | – | – | – | – | – | induce apoptosis in colon cancer cells |
